Data set [1] can be described thus: Half life in Sprague-Dawley rat at 5 to 10 mg/kg, po administered as cassette dose measured upto 24 hrs by LC-MS analysis. The conditions noted are these: in vivo, dose 5-10 mg/kg. The class given is ADME, organism-based.
Data set [2] is described as follows: Dose normalized AUC (0 to t) in Sprague-Dawley rat at 5 to 10 mg/kg, po administered as cassette dose measured upto 24 hrs by LC-MS analysis. The class given is ADME, organism-based. The conditions noted are these: in vivo, dose 5-10 mg/kg.
A short description of data set [3]: AUC (0 to t) in Sprague-Dawley rat at 5 to 10 mg/kg, po administered as cassette dose measured upto 24 hrs by LC-MS analysis. The class given is ADME, organism-based. More on the design: time < 24 hrs, route po. Particulars: in vivo, dose 5-10 mg/kg.
A short description of data set [4]: Cmax in Sprague-Dawley rat at 5 to 10 mg/kg, po administered as cassette dose measured upto 24 hrs by LC-MS analysis. The class given is ADME, organism-based. Also noted: time < 24 hrs, route po. The conditions noted are these: in vivo, dose 5-10 mg/kg.
Data set [5] in a line: Tmax in Sprague-Dawley rat at 5 to 10 mg/kg, po administered as cassette dose measured upto 24 hrs by LC-MS analysis. The class given is ADME, organism-based. Particulars: in vivo, dose 5-10 mg/kg.
The target in data set [6] is T1, Tyrosine-protein kinase BTK (Homo sapiens, UniProt Q06187). Put plainly: Induction of BTK degradation in human MINO cells incubated for 24 hrs by Western blot. The class given is cell-based. Particulars: dose 1-1000 nM, DDE = dose-dependent effect.
Data set [7] concerns the target T1, Tyrosine-protein kinase BTK. Put plainly: Inhibition of BTK (unknown origin).

T1 sequence (Q06187 whole entry): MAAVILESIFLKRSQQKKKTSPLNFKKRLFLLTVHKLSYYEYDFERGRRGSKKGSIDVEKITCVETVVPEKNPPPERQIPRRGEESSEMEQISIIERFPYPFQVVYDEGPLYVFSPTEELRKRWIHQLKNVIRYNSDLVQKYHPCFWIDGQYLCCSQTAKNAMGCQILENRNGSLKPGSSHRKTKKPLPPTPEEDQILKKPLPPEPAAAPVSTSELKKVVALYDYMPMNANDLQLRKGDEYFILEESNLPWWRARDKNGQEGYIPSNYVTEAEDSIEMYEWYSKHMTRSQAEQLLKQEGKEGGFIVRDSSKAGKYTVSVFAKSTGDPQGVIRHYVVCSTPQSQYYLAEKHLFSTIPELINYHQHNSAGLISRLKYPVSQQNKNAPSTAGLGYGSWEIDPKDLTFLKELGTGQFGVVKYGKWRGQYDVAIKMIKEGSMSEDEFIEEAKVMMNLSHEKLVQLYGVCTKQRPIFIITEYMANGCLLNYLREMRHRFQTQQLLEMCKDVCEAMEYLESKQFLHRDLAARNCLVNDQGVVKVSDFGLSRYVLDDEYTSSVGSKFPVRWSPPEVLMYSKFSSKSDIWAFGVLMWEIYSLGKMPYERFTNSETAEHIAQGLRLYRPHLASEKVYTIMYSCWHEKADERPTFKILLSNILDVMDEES

With `O=C1CCC(N2C(=O)c3ccc(N4CCN(CC#CCN5CCN(c6ccc(C(F)(F)F)cc6)CC5)CC4)cc3C2=O)C(=O)N1` (stereo not drawn), in data set [1], the half-life (usually the time needed for the level to fall by half in the phase considered) was 840 min. In data set [2], this compound had an AUCt/dose of 194 ng·h/mL/mg. Moreover, the AUC(0-t) (commonly exposure summed from dosing to a finite time, without extrapolation to infinity) at 24 h in data set [3] stood at 1940 ng·h/mL. Moreover, the Cmax (commonly the maximum level reached in the sampled fluid or tissue) in data set [4] turned out to be 200 ng/mL. Moreover, the time to peak (Tmax) (commonly the time from dosing to the highest level) in data set [5] was found to be 2.8 h.

For the compound `O=C1CCC(N2Cc3c(OC4CN(CC#CCN5CCN(c6ccc(C(F)(F)F)cc6)CC5)C4)cccc3C2=O)C(=O)N1` (stereo not drawn), the half-life in data set [1] is 342 min. In data set [2], this compound came in with an AUCt/dose of 128 ng·h/mL/mg. The same compound returned an AUC(0-t) at 24 h in data set [3] of 49 ng·h/mL. In addition, in data set [4], the Cmax was determined as 232 ng/mL. For the same compound, the Tmax in data set [5] came to 0.3 h.

For `Nc1ncnc2c1c(-c1ccc(Oc3ccccc3)cc1)nn2[C@@H]1CCCN(C(=O)[C@H]2CC[C@H](C(=O)NCC#CCN3CCN(CC#Cc4ccc5c(c4)CN(C4CCC(=O)NC4=O)C5=O)CC3)CC2)C1` (stereo partly drawn), the Activity result in data set [6] is “Dde”. The compound also showed a half-life in data set [1] of 90 min. The compound also showed an AUCt/dose in data set [2] of 11 ng·h/mL/mg. The compound also showed an AUC(0-t) at 24 h in data set [3] of 112 ng·h/mL. In data set [4], this compound displayed a Cmax of 69 ng/mL. For the same compound, the Tmax in data set [5] worked out at 0.5 h. Also, in data set [7], the IC50 (usually the concentration needed to halve the response being measured) turned out to be 9 nM.

With `Nc1ncnc2c1c(-c1ccc(Oc3ccccc3)cc1)nn2[C@@H]1CCCN(C(=O)C2(C(=O)NCC#CCN3CCN(CC#Cc4ccc5c(c4)CN(C4CCC(=O)NC4=O)C5=O)CC3)CC2)C1` (stereo partly drawn), in data set [6], the Activity result was “Dde”. Moreover, the half-life in data set [1] is 102 min. The AUCt/dose in data set [2] came to 15 ng·h/mL/mg. Also, in data set [3], the AUC(0-t) at 24 h worked out at 145 ng·h/mL. This compound also registered a Cmax in data set [4] of 77 ng/mL. For the same compound, the Tmax in data set [5] stood at 0.3 h. For the same compound, in data set [7], the IC50 was 9 nM.

Consider `Nc1ncnc2c1c(-c1ccc(Oc3ccccc3)cc1)nn2[C@@H]1CCCN(C(=O)CCCCC(=O)NCC#CCN2CCN(CC#Cc3ccc4c(c3)CN(C3CCC(=O)NC3=O)C4=O)CC2)C1` (stereo partly drawn), for which the Activity result in data set [6] was “Dde”. Moreover, the midpoint of inhibition in data set [7], the IC50, lay at 9 nM.

In turn, `O=C1CCC(N2C(=O)c3cccc(N4CCN(C5CCN(CC#CCOc6ccc(C(F)(F)F)cc6)CC5)CC4)c3C2=O)C(=O)N1` (stereo not drawn) showed a half-life in data set [1] of 582 min. The AUCt/dose in data set [2] worked out at 143 ng·h/mL/mg. Moreover, in data set [3], the area under the curve AUC(0-t) at 24 h was 142 ng·h/mL. The compound further came in with a Cmax in data set [4] of 269 ng/mL. In addition, the Tmax in data set [5] is 1.2 h.

Take `Nc1ncnc2c1c(-c1ccc(Oc3ccccc3)cc1)nn2[C@@H]1CCCN(C(=O)CCCCCCC(=O)NCC#CCN2CCN(CC#Cc3ccc4c(c3)CN(C3CCC(=O)NC3=O)C4=O)CC2)C1` (stereo partly drawn): in data set [6], the Activity entry was “Dde”. Also, in data set [7], the IC50 came out at 9 nM.

In the case of `O=C1CCC(N2Cc3ccc(C#CCN4CCN(CC#CCOc5ccc(C(F)(F)F)cc5)CC4)cc3C2=O)C(=O)N1` (stereo not drawn), the AUCt/dose in data set [2] came out at 796 ng·h/mL/mg. In data set [3], this compound displayed an AUC(0-t) at 24 h of 7960 ng·h/mL. The maximum concentration (Cmax) in data set [4] amounted to 1250 ng/mL. Also, in data set [5], the Tmax was determined as 8.5 h.

As for `O=C1CCC(N2C(=O)c3cccc(NCCN4CCN(CC#CCOc5ccc(C(F)(F)F)cc5)CC4)c3C2=O)C(=O)N1` (stereo not drawn), the half-life in data set [1] was 1060 min. The compound also registered an AUCt/dose in data set [2] of 65 ng·h/mL/mg. The same compound showed an AUC(0-t) at 24 h in data set [3] of 328 ng·h/mL. The compound further yielded a Cmax in data set [4] of 24 ng/mL. Further, the Tmax in data set [5] was found to be 3.7 h.

In data set [1], `O=C1CCC(N2C(=O)c3cccc(N4CCN(CC#CCN5CCN(c6ccc(C(F)(F)F)cc6)CC5)CC4)c3C2=O)C(=O)N1` (stereo not drawn) gave a half-life of 618 min. The compound also registered an AUCt/dose in data set [2] of 172 ng·h/mL/mg. The same compound came in with an AUC(0-t) at 24 h in data set [3] of 1720 ng·h/mL. The same compound gave a Cmax in data set [4] of 194 ng/mL. In addition, the Tmax in data set [5] came out at 0.9 h.

Compound `O=C1CCC(N2C(=O)c3ccc(N4CCN(C5CN(CCCCOc6ccc(C(F)(F)F)cc6)C5)CC4)cc3C2=O)C(=O)N1` (stereo not drawn) had a half-life in data set [1] of 204 min. Moreover, in data set [2], the AUCt/dose amounted to 281 ng·h/mL/mg. Further, the AUC(0-t) at 24 h in data set [3] was 2810 ng·h/mL. Besides, the Cmax in data set [4] worked out at 223 ng/mL. In data set [5], the Tmax is 10 h.

As to `Nc1ncnc2c1c(-c1ccc(Oc3ccccc3)cc1)nn2[C@@H]1CCCN(C(=O)C2(C(=O)N3CCN(CC#Cc4ccc5c(c4)CN(C4CCC(=O)NC4=O)C5=O)CC3)CC2)C1` (stereo partly drawn), the Activity entry in data set [6] is “Dde”. The compound further gave a half-life in data set [1] of 138 min. This compound registered an AUCt/dose in data set [2] of 253 ng·h/mL/mg. In data set [3], this compound returned an AUC(0-t) at 24 h of 2530 ng·h/mL. The same compound displayed a Cmax in data set [4] of 782 ng/mL. In data set [5], the time of peak concentration (Tmax) came to 0.9 h. Further, the IC50 in data set [7] was 9 nM.

Regarding `Nc1ncnc2c1c(-c1ccc(Oc3ccccc3)cc1)nn2[C@@H]1CCCN(C(=O)/C=C/C(=O)NCC#CCN2CCN(CC#Cc3ccc4c(c3)CN(C3CCC(=O)NC3=O)C4=O)CC2)C1` (stereo partly drawn), the Activity result in data set [6] is “Dde”. In data set [1], this compound had a half-life of 90 min. This compound registered an AUCt/dose in data set [2] of 2 ng·h/mL/mg. Besides, the AUC(0-t) at 24 h in data set [3] was 20 ng·h/mL. This compound yielded a Cmax in data set [4] of 15 ng/mL. Besides, in data set [5], the Tmax turned out to be 0.6 h. The compound further came in with an IC50 in data set [7] of 9 nM.

The compound `O=C1CCC(N2Cc3cc(C#CCN4CCN(CC#CCOc5ccc(C(F)(F)F)cc5)CC4)ccc3C2=O)C(=O)N1` (stereo not drawn) had a half-life in data set [1] of 360 min. In data set [2], this compound returned an AUCt/dose of 1524 ng·h/mL/mg. Further, the AUC(0-t) at 24 h in data set [3] is 15200 ng·h/mL. In data set [4], this compound displayed a Cmax of 1550 ng/mL. Moreover, the Tmax in data set [5] came to 8.3 h.

Consider `O=C1CCC(N2C(=O)c3cccc(N4CCN(CC5CCN(CCCCOc6ccc(C(F)(F)F)cc6)CC5)CC4)c3C2=O)C(=O)N1` (stereo not drawn), for which the half-life in data set [1] is 6720 min. The AUCt/dose in data set [2] was 113 ng·h/mL/mg. The same compound yielded an AUC(0-t) at 24 h in data set [3] of 1130 ng·h/mL. The concentration in data set [4] peaked (Cmax) at 68 ng/mL. For the same compound, the Tmax in data set [5] was 10.7 h.

`Nc1ncnc2c1c(-c1ccc(Oc3ccccc3)cc1)nn2[C@@H]1CCCN(C(=O)CCC(=O)NCC#CCN2CCN(CC#Cc3ccc4c(c3)CN(C3CCC(=O)NC3=O)C4=O)CC2)C1` (stereo partly drawn): the Activity entry in data set [6] was “Dde”. The compound also returned an IC50 in data set [7] of 9 nM.

For the compound `O=C1CCC(N2Cc3cc(C#CCN4CCN(c5ccc(C(F)(F)F)cc5)CC4)ccc3C2=O)C(=O)N1` (stereo not drawn), in data set [1], the half-life is 240 min. In addition, in data set [2], the AUCt/dose amounted to 1527 ng·h/mL/mg. In data set [3], this compound displayed an AUC(0-t) at 24 h of 15300 ng·h/mL. The concentration in data set [4] peaked (Cmax) at 1050 ng/mL. The Tmax in data set [5] is 6.7 h.

The compound `O=C1CCC(N2C(=O)c3cccc(N4CCN(C5CCN(CCCCOc6ccc(C(F)(F)F)cc6)CC5)CC4)c3C2=O)C(=O)N1` (stereo not drawn) showed a half-life in data set [1] of 318 min. The compound further displayed an AUCt/dose in data set [2] of 116 ng·h/mL/mg. Moreover, in data set [3], the AUC(0-t) at 24 h came to 1160 ng·h/mL. The compound also had a Cmax in data set [4] of 71 ng/mL. Moreover, in data set [5], the Tmax is 4.7 h.

`O=C1CCC(N2C(=O)c3ccc(N4CCN(C5CN(CC#CCOc6ccc(C(F)(F)F)cc6)C5)CC4)cc3C2=O)C(=O)N1` (stereo not drawn) showed a half-life in data set [1] of 516 min. The AUCt/dose in data set [2] came to 708 ng·h/mL/mg. The compound further displayed an AUC(0-t) at 24 h in data set [3] of 7080 ng·h/mL. The Cmax in data set [4] turned out to be 1050 ng/mL. Besides, in data set [5], the Tmax was found to be 1.2 h.

Consider `O=C1CCC(N2Cc3cc(CCCN4CCN(CC#CCOc5ccc(C(F)(F)F)cc5)CC4)ccc3C2=O)C(=O)N1` (stereo not drawn), for which the half-life in data set [1] was 132 min. In addition, the AUCt/dose in data set [2] stood at 47 ng·h/mL/mg. For the same compound, the AUC(0-t) at 24 h in data set [3] is 236 ng·h/mL. The compound also showed a Cmax in data set [4] of 99 ng/mL. The Tmax in data set [5] is 0.3 h.

Compound `O=C1CCC(N2C(=O)c3cccc(N4CCN(CC5CCN(CC#CCOc6ccc(C(F)(F)F)cc6)CC5)CC4)c3C2=O)C(=O)N1` (stereo not drawn) gave a half-life in data set [1] of 534 min. Besides, in data set [2], the AUCt/dose is 435 ng·h/mL/mg. For the same compound, in data set [3], the AUC(0-t) at 24 h stood at 4350 ng·h/mL. The compound further yielded a Cmax in data set [4] of 419 ng/mL. In addition, the Tmax in data set [5] stood at 11 h.

(Values after ChEMBL document CHEMBL5131541, “Structural Feature Analyzation Strategies toward Discovery of Orally Bioavailable PROTACs of Bruton's Tyrosine Kinase for the Treatment of Lymphoma” (J Med Chem, 2022).)
